Assay [1] concerns the target T1, Bromodomain and PHD finger-containing protein 3 (Homo sapiens, UniProt Q9ULD4).
T1 sequence (Q9ULD4 whole entry): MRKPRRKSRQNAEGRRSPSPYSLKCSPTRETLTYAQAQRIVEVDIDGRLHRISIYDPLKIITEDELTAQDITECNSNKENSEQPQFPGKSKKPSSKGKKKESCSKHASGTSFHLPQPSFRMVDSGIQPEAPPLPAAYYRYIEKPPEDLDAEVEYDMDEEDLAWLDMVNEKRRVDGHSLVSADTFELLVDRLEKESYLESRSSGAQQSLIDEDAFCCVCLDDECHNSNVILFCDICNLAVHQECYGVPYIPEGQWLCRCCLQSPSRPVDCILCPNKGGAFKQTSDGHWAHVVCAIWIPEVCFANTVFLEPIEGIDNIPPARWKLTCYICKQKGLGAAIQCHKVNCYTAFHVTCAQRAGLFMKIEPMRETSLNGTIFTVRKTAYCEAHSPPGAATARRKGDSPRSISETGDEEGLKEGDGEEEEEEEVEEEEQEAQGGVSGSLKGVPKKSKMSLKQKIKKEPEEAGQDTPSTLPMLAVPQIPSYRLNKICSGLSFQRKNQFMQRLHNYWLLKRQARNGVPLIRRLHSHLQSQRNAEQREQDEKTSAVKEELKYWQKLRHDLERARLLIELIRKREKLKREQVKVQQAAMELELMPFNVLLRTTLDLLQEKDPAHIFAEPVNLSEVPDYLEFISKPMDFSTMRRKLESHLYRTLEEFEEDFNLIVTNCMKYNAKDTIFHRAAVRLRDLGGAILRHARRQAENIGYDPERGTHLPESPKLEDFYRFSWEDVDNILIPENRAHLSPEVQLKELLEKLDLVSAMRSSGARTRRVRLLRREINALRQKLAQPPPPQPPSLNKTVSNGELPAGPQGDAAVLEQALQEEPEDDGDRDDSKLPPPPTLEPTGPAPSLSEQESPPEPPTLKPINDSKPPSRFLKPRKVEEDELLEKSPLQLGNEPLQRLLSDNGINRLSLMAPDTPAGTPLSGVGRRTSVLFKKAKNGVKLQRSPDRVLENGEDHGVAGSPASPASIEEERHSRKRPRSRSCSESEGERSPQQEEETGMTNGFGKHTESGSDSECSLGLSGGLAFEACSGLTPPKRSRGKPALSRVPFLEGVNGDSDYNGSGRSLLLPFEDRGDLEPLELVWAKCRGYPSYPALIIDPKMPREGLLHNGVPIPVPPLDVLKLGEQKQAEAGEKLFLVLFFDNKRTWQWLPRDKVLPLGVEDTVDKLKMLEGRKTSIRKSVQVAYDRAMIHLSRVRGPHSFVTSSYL
Kind of assay: Inhibition of human BRPF3 expressed in Escherichia coli BL21 after 1 hr by BROMOscan assay.

The target of assay [2] is T2, Bromodomain and PHD finger-containing protein 3 (Homo sapiens) (UniProt Q9ULD4).
T2 sequence (whole entry): T1 sequence (Q9ULD4 whole entry)

The target in assay [3] is T3, Bromodomain-containing protein 1 (Homo sapiens) (UniProt O95696).
T3 sequence (whole entry): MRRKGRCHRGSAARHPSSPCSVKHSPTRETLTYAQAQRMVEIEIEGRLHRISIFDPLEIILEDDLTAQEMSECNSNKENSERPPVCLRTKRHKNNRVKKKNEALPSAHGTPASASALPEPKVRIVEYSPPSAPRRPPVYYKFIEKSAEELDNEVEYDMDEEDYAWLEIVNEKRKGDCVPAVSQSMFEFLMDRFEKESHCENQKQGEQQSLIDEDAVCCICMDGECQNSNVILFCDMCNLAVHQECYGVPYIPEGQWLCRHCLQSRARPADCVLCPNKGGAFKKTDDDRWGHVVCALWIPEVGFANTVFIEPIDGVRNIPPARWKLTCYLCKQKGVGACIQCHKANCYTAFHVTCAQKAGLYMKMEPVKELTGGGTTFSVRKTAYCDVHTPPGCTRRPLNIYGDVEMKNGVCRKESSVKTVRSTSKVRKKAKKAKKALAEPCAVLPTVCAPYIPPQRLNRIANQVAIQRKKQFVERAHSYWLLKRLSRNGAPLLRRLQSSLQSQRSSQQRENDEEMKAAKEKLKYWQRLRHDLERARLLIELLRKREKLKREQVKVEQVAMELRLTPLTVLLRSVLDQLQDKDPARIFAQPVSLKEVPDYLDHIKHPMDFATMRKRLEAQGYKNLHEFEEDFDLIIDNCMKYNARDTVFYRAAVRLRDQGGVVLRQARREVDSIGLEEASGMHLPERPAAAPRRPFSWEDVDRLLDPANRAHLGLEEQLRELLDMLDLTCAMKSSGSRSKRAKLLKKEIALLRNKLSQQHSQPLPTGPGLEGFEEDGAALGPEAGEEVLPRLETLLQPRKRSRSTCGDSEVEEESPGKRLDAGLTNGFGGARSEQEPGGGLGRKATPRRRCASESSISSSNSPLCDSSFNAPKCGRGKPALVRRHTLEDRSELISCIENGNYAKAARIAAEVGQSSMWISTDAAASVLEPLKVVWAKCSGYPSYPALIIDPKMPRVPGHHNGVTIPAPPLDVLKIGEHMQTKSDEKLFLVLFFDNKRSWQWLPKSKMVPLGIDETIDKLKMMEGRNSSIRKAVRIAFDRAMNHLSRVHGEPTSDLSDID

Assay [4] addresses T4, Bromodomain-containing protein 4 (Homo sapiens, UniProt O60885).
In assay [5] the target is ATPase family AAA domain-containing protein 2B (Homo sapiens, UniProt Q9ULI0). Kind of assay: Inhibition of human ATAD2B expressed in Escherichia coli BL21 after 1 hr by BROMOscan assay.
Sequence of ATPase family AAA domain-containing protein 2B (Q9ULI0 whole entry, the tested form may be a part): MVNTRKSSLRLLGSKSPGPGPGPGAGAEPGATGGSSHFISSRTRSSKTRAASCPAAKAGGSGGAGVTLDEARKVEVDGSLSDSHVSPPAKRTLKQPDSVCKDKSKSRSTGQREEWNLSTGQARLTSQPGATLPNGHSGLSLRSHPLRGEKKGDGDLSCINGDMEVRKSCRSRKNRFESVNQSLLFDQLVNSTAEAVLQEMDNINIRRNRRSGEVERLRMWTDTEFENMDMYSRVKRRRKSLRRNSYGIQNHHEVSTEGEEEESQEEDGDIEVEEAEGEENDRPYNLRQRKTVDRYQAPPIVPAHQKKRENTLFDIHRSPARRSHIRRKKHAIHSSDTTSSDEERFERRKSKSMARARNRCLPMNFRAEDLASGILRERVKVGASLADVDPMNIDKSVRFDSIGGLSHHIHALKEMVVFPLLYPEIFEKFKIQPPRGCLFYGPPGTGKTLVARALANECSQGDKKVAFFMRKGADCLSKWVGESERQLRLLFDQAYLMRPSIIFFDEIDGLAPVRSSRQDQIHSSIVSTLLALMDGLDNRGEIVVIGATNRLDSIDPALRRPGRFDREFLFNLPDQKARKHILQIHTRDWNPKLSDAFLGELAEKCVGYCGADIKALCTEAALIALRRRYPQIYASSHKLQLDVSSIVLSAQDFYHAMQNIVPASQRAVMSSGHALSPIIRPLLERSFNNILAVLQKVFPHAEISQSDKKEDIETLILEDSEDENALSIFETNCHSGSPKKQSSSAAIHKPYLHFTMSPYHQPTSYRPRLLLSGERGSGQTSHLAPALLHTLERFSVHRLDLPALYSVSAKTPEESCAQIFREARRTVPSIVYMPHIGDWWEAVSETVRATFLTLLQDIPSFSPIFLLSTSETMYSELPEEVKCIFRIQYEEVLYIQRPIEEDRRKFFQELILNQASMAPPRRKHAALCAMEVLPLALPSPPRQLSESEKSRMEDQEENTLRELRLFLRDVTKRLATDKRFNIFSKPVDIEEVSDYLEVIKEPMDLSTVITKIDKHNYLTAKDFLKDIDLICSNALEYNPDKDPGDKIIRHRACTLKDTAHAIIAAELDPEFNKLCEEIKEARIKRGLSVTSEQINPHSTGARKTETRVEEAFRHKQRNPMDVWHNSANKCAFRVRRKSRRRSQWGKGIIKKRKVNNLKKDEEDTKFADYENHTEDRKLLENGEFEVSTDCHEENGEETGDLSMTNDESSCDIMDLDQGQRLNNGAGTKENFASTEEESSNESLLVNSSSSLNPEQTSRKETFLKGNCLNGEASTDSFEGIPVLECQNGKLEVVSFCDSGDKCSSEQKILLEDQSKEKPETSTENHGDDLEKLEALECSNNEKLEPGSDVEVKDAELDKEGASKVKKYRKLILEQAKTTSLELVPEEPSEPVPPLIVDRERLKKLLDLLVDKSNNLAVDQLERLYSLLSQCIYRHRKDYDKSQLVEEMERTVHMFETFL
Assay [6] concerns the target T4, Bromodomain-containing protein 4. Kind of assay: Inhibition of human His tagged BRD4-BD1 incubated for 30 mins followed by addition of biotinylated peptide and further incubation for 30 mins measured by AlphaScreen assay. A general note: Bead proximity is the source of the signal in Alpha formats.
Assay [7] addresses Bromodomain-containing protein 7 (Homo sapiens, UniProt Q9NPI1). Kind of assay: Inhibition of human BRD7 expressed in Escherichia coli BL21 after 1 hr by BROMOscan assay.

Sequence of Bromodomain-containing protein 7 (Q9NPI1 whole entry): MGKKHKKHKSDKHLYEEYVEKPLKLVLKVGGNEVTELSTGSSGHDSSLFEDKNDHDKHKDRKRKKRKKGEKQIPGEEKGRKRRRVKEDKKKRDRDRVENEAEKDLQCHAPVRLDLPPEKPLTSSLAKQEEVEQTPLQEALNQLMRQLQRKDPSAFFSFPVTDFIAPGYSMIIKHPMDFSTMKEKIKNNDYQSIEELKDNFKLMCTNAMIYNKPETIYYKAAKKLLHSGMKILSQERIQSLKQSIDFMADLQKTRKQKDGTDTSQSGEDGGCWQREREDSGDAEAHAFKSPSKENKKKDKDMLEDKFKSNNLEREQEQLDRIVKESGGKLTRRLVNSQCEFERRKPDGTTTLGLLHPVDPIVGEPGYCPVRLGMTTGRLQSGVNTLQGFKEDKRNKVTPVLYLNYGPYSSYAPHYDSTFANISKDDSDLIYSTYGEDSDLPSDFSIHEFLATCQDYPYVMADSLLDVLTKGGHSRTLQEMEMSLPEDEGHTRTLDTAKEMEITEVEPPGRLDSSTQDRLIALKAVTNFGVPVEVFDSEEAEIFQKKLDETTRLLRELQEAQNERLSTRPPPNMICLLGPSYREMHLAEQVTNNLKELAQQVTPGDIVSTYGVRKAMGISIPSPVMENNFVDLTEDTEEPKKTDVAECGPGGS

A word on the IC50: it is the concentration at which inhibition is half-maximal. A low value points to greater potency in that assay. Compound `Cn1c(=O)ccc2cc(NS(=O)(=O)c3ccc(C#N)c(Cl)c3)ccc21` registered an IC50 in assay [1] of 2.3 µM.

One may read the ΔTm as the shift of the melting midpoint relative to a reference. Take `Cc1cc(C#N)ccc1S(=O)(=O)Nc1ccc2c(ccc(=O)n2C)c1`: the ΔTm in assay [2] stood at 2.4 °C; in assay [3], 3.4 °C; in assay [4] it was 0.4 °C.

`COc1ccccc1C(=O)Nc1cc2cc(C)c(=O)n(C)c2cc1N1CCCC1` gave an IC50 in assay [1] of 12 µM.

With `COc1cc2c(cc1NS(=O)(=O)c1ccc(C#N)cc1)c(C)cc(=O)n2C`, the IC50 in assay [1] is 9.3 µM.

As to `CCc1cc2cc(NS(=O)(=O)c3ccc(C#N)cc3)ccc2n(CC)c1=O`, the IC50 in assay [5] is over 100 µM; in assay [6] it was over 20 µM; in assay [1] it was over 100 µM; in assay [7] it was over 100 µM.

Turning to `Cc1cc2cc(NS(=O)(=O)c3ccc(C#N)cc3)ccc2n(C)c1=O`, the 50% inhibitory concentration (IC50) in assay [5] was over 100 µM; in assay [6], over 20 µM; in assay [1] it was 0.26 µM; in assay [7], 0.082 µM. Also, the ΔTm was 4.5 °C in assay [2], 5.1 °C in assay [3] and 0.95 °C in assay [4].

The values above are taken from ChEMBL document CHEMBL4052588, “Design of a Biased Potent Small Molecule Inhibitor of the Bromodomain and PHD Finger-Containing (BRPF) Proteins Suitable for Cellular and in Vivo Studies” (J Med Chem, 2017).
